From ChEMBL document CHEMBL1154195, “Synthesis and binding affinity of potential atypical antipsychotics with the tetrahydroquinazolinone motif” (Bioorg Med Chem Lett, 2009)
pKi: −log10 of the molar value.

Tests used:
[1] = organism: Homo sapiens; test: Ratio of pKi for human cloned 5HT2A receptor to pKi for human cloned dopamine D2 receptor
[2] = molecular target: T1, 5-hydroxytryptamine receptor 2C (Homo sapiens, UniProt P28335); test: Displacement of [3H]mesulergine from human 5HT2C receptor
T1 sequence (P28335 whole entry): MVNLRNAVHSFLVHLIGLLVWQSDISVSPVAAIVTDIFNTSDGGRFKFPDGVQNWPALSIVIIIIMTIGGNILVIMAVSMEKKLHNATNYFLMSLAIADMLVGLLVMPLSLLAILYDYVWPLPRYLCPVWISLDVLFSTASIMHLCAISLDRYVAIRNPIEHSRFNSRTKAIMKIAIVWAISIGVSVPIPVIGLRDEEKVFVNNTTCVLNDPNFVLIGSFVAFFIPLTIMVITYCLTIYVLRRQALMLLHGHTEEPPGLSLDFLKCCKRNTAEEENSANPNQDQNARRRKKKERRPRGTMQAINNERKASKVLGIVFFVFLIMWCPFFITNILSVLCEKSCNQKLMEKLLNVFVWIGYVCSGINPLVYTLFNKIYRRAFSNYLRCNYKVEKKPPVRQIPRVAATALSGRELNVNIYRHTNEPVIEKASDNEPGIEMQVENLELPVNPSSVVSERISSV

[3] = molecular target: D(1A) dopamine receptor (Homo sapiens, UniProt P21728)
Description: Displacement of [3H]SCH23390 from human dopamine D1 receptor

[4] = molecular target: D(3) dopamine receptor (Homo sapiens, UniProt P35462)
Description: Displacement of [3H]spiperone from human dopamine D3 receptor

[5] = molecular target: 5-hydroxytryptamine receptor 2A (Homo sapiens, UniProt P28223); test: Displacement of [3H]ketanserin from human cloned 5HT2A receptor
[6] = molecular target: D(2) dopamine receptor (Homo sapiens) (UniProt P14416); test: Displacement of [3H]spiperone from human cloned dopamine D2 receptor at 10 uM
Chain of D(2) dopamine receptor (Homo sapiens) (P14416 whole entry): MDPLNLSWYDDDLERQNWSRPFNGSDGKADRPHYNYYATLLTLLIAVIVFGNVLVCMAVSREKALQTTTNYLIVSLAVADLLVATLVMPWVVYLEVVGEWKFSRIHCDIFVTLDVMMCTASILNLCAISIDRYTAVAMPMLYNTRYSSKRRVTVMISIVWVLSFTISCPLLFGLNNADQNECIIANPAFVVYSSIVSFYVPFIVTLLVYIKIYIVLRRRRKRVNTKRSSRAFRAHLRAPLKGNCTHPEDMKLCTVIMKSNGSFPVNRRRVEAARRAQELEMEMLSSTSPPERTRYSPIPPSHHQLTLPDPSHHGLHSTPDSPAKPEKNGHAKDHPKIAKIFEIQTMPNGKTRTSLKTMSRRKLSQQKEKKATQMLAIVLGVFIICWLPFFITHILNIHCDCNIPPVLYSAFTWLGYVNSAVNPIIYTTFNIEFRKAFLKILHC

Chain of 5-hydroxytryptamine receptor 2A (P28223 whole entry): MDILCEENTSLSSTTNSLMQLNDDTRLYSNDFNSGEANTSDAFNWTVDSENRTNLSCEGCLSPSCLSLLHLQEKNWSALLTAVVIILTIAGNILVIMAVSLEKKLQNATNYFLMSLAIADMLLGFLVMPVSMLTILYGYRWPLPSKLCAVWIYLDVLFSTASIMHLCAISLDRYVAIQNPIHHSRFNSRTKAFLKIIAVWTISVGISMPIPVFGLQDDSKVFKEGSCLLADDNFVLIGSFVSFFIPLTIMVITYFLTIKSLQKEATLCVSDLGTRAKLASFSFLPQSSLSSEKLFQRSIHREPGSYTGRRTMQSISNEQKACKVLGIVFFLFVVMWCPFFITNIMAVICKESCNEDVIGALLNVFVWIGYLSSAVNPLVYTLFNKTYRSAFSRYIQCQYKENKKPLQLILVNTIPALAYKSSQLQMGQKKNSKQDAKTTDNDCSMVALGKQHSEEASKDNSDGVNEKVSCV
Chain of D(3) dopamine receptor (P35462 whole entry): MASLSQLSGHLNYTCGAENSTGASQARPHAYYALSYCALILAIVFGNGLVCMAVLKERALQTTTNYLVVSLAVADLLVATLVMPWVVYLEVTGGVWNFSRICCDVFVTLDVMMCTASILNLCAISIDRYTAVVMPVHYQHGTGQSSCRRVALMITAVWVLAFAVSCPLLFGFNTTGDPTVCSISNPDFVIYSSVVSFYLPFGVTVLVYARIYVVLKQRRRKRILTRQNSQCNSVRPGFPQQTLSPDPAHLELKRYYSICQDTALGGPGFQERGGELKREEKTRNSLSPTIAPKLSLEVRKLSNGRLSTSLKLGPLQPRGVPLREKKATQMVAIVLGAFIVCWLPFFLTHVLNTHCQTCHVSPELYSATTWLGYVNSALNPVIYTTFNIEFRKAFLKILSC
Chain of D(1A) dopamine receptor (P21728 whole entry): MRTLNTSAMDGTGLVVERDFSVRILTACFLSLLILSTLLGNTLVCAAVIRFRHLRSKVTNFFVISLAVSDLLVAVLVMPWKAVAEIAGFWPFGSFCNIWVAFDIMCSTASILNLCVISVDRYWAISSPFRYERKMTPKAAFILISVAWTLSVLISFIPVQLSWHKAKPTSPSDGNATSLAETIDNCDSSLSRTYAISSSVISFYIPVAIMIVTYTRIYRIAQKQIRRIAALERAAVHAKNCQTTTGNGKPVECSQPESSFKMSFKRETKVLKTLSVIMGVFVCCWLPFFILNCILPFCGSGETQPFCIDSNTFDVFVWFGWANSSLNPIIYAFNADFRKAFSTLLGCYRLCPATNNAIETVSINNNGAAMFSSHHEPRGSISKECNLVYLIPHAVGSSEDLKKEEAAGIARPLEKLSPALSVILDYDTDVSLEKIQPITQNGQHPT

O=C1CC(CN2CCC(c3noc4cc(F)ccc34)CC2)Cc2ncncc21 (stereo not drawn)
Ratio pKi [1]: 1.12
pKi [2]: 6.30
pKi [3]: 6.87
pKi [4]: 6.55
pKi [5]: 7.63

O=C1CC(CN2CCC(c3noc4cc(F)ccc34)CC2)Cc2nc(-c3ccccc3)ncc21 (stereo not drawn)
Ratio pKi [1]: 0.92
pKi [5]: 6.90

CSc1ncc2c(n1)CC(CN1CCC(c3noc4cc(F)ccc34)CC1)CC2=O (stereo not drawn)
pKi [2]: < 5.00
pKi [4]: 7.35
pKi [5]: 8.34

CNc1ncc2c(n1)CC(CN1CCC(C(=O)c3ccc(F)cc3)CC1)CC2=O (stereo not drawn)
Ratio pKi [1]: 1.23
pKi [5]: 8.19

O=C1CC(CN2CCC(C(=O)c3ccc(F)cc3)CC2)Cc2ncncc21 (stereo not drawn)
Ratio pKi [1]: 1.05
pKi [5]: 6.51

CSc1ncc2c(n1)CC(CN1CCC(C(=O)c3ccc(F)cc3)CC1)CC2=O (stereo not drawn)
pKi [5]: 6.99
inhibition [6]: < 60%

O=C1CC(CN2CCC(C(=O)c3ccc(F)cc3)CC2)Cc2nc(-c3ccccc3)ncc21 (stereo not drawn)
pKi [5]: 6.20
inhibition [6]: < 60%

CNc1ncc2c(n1)CC(CN1CCC(c3noc4cc(F)ccc34)CC1)CC2=O (stereo not drawn)
Ratio pKi [1]: 1.18
pKi [2]: < 5.00
pKi [3]: 7.37
pKi [4]: 6.70
pKi [5]: 8.62
